Source: patent US5340829A, “Immunoregulatory agents” (priority 1992, dated 1994)
“Also recorded” adds a separate entry of the source.

How the values were obtained:
[1] = tested on: delayed-type hypersensitivity (DTH); experiment: DTH ear swelling, comparison of sorbinil, tolrestat, WF-3681 and NSAIDs (Experiment 23, TABLE 5); type: in vivo, mice; details: for Effect on DTH as measured by ear swelling (in words): mouse, in vivo
Protocol: Delayed type hypersensitivity, which involves the participation of T lymphocytes and macrophages, can be studied in vivo by exposing (or priming) a mammal to a novel antigen and then reexposing (or challenging) the primed animal to the same antigen four to seven days later. The classic DTH response includes symptoms of inflammatory response, induration and erythema, which peak at 24 to 48 hours after challenging and then decline slowly.
Eight-week old female C57BL/6J mice (Jackson Labs) were divided into primed and unprimed groups. The five mice in the primed group were primed to 2,4-dinitrofluorobenzene (DNFB; Sigma Chemical Co., Grade 1, approx. 98%, Lot 129C-0065, No. d-6879) by painting their shaved ventral skins with 0.1 ml of 0.5% DNFB in ethanol:acetone (3:1). The five mice in the unprimed group were shaved and topically painted on their ventral skins with the ethanol:acetone (3:1) vehicle alone. The mice in both groups were challenged with DNFB four days later. A suitable patch of skin, the ear, was chosen for challenging. One ear was designated for challenging and the other to serve as a control. The thickness of each ear across the pinna was measured using micrometer calipers. The first measurements were taken four days after priming and are plotted as day 0 in FIG. 13. Next, each mouse was subjected to the following challenge regimen: one ear was challenged with one drop of 0.35% DNFB in olive oil, and the other (unchallenged control) ear was exposed to olive oil alone. The ear thicknesses (ET) of the challenged ear and the unchallenged ear were measured daily, and the swelling responses are plotted in FIG. 13 as: [formula]
Three groups of eight-week old female C57BL/6J mice were primed to DNFB as previously described. […] Six hours later the first sets of ear measurements were taken, and one ear of each mouse was challenged.
The Table has 4 columns, listing (left to right) each drug tested in column 1, drug concentrations in column 2, relative swelling in column 3, and effectiveness in column 4.

aldose reductase = details: approximate molar concentration necessary for 50% inhibition of aldose reductase; cited from earlier work
[2] = tested on: ear swelling in response to PMA; details: general statement on NSAIDs; cited from earlier work
[3] = tested on: Human polymorphonuclear leukocytes (PMNs); details: known from the art; cited from earlier work
[4] = tested on: Human polymorphonuclear leukocytes (PMNs); experiment: LTB4 release by polymorphonuclear leukocytes (Experiment 10); type: cell-based; details: normal human PMNs
Text: Human polymorphonuclear leukocytes (PMNs) were used to study LTB4 release, which is known to be involved in inflammation.

[5] = tested on: ear swelling produced by topical application of arachidonic acid; experiment: Ear swelling produced by topical arachidonic acid (Experiment 22); type: in vivo, mice; details: topical administration
[6] = concentration 8.5 μM, 0 = no effect

Structure (SMILES)	relative swelling (R) ([1]; concentration 8.5 μM)	effectiveness (1 - R) (100%) [1, 6]	Effect on DTH as measured by ear swelling (in words) [1]	IC50 (aldose reductase)	also measured
CC(=O)Nc1ccc(O)cc1 [Acetaminophen, acetaminophen]	1.0	0%	not effective in preventing DTH	–	–
CC(=O)Oc1ccccc1C(=O)O [Aspirin, acetylsalicylic acid]	1.0	0%	not effective in preventing DTH; also recorded: failed to inhibit DTH	~100 µM	Swelling of mouse ears in response to PMA (NSAIDs, stated in contrast) [2]: inhibit this response; LTB4 production (known) [3]: inhibit LTB4 production
O=c1c(O)c(-c2ccccc2)oc2ccccc12 [Hydroxyflavone, 3-hydroxyflavone]	–	–	–	~1 µM	–
CC(C)Cc1ccc(C(C)C(=O)O)cc1 (centres unmarked) [Ibuprofen, ibuprofen]	1.0	0%	not effective in preventing DTH	–	–
CCC1(c2ccccc2)C(=O)NC(=O)NC1=O [Phenobarbital, phenobarbital]	–	–	–	~1000 µM	–
C[C@@H]1O[C@@H](Oc2c(-c3ccc(O)c(O)c3)oc3cc(O)cc(O)c3c2=O)[C@H](O)[C@H](O)[C@H]1O [Quercitrin, quercitrin]	–	–	not effective in preventing DTH	–	effectiveness (1 - R) (100%) ([1]; concentration 3 μM): 2%; relative swelling (R) ([1]; concentration 3 μM): 0.98
O=C(O)CCC1OC(=O)C(O)=C1c1ccccc1 (centres unmarked) [WF-3681, 3-(2,5-dihydro-4-hydroxy-5-oxo-3-phenyl-2-furyl)propionic acid]	–	–	strong and substantially identical inhibitory effect	–	effectiveness (1 - R) (100%) ([1]; concentration 2.125 μM): 4%; relative swelling (R) ([1]; concentration 2.125 μM): 0.96; effectiveness (1 - R) (100%) ([1]; concentration 4.25 μM): 39%; relative swelling (R) ([1]; concentration 4.25 μM): 0.62; relative swelling (R) ([1]; concentration 6 μM): 0.68; Production of LTB4 [4]: no effect
COc1ccc2c(c1)c(CC(=O)O)c(C)n2C(=O)c1ccc(Cl)cc1 [indomethacin]	–	–	–	–	Ear swelling produced by topical arachidonic acid [5]: completely inhibited
CC1=C(/C=C/C(C)=C/C=C/C(C)=C/C(=O)O)C(C)(C)CCC1 [retinoic acid]	–	–	–	–	LTB4 production (known) [3]: inhibit LTB4 production
